PubChem BioAssay AID330 (DTP/NCI, 2004)
Where “and” joins values, the source holds several entries; their conditions need not be identical. Identical values can stand only once. Inconclusive results and toxic doses are left out.

System: P388 leukemia ip, CD2F1 mice, survival T/C
Test: NCI In Vivo Anticancer Drug Screen. Data for tumor model P388 Leukemia (intraperitoneal) in CD2F1 (CDF1) mice
Conditions: endpoint: median survival time, higher = longer survival
In short: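 Mice carrying the transplanted tumor received test compound or vehicle. Survival was recorded in each group, and the value is the treated-group measurement divided by that of the vehicle-treated control group.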

[1] = dose: 60.0 mg/kg/injection, schedule: Q01DX005 (ip), vehicle: Klucel (hydroxypropylcellulose) (HPC)
[2] = dose: 120.0 mg/kg/injection, schedule: Q01DX005 (ip), vehicle: Klucel (hydroxypropylcellulose) (HPC)
[3] = dose: 240.0 mg/kg/injection, schedule: Q01DX005 (ip), vehicle: Klucel (hydroxypropylcellulose) (HPC)
[4] = dose: 50.0 mg/kg/injection, schedule: Q01DX005 (ip), vehicle: saline
[5] = dose: 50.0 mg/kg/injection, schedule: Q01DX009 (ip), vehicle: saline with Tween-80
[6] = dose: 100.0 mg/kg/injection, schedule: Q01DX009 (ip), vehicle: saline with Tween-80
[7] = dose: 200.0 mg/kg/injection, schedule: Q01DX009 (ip), vehicle: saline with Tween-80
[8] = dose: 25.0 mg/kg/injection, schedule: Q01DX009 (ip), vehicle: saline with Tween-80
[9] = dose: 400.0 mg/kg/injection, schedule: Q01DX009 (ip), vehicle: saline with Tween-80
[10] = dose: 50.0 mg/kg/injection, schedule: Q01DX009 (ip), vehicle: Klucel (hydroxypropylcellulose) (HPC)
[11] = dose: 100.0 mg/kg/injection, schedule: Q01DX009 (ip), vehicle: Klucel (hydroxypropylcellulose) (HPC)
[12] = dose: 200.0 mg/kg/injection, schedule: Q01DX009 (ip), vehicle: Klucel (hydroxypropylcellulose) (HPC)
[13] = dose: 50.0 mg/kg/injection, schedule: Q01DX005 (ip), vehicle: Klucel (hydroxypropylcellulose) (HPC)
[14] = dose: 100.0 mg/kg/injection, schedule: Q01DX005 (ip), vehicle: Klucel (hydroxypropylcellulose) (HPC)
[15] = dose: 200.0 mg/kg/injection, schedule: Q01DX005 (ip), vehicle: Klucel (hydroxypropylcellulose) (HPC)

Nc1cc(N)c(Nc2ccccc2)cc1Nc1ccccc1
T/C (dose: 100.0 mg/kg/injection, schedule: Q01DX001 (ip), vehicle: Klucel (hydroxypropylcellulose) (HPC)): 99 % of control
T/C (dose: 200.0 mg/kg/injection, schedule: Q01DX001 (ip), vehicle: Klucel (hydroxypropylcellulose) (HPC)): 101 % of control
T/C (dose: 400.0 mg/kg/injection, schedule: Q01DX001 (ip), vehicle: Klucel (hydroxypropylcellulose) (HPC)): 97 % of control

CCOC(=O)NC1=C(N2CC2)C(=O)C(NC(=O)OCC)=C(N2CC2)C1=O
T/C (dose: 0.5 mg/kg/injection, schedule: Q01DX005 (iv), vehicle: saline): 110 % of control
T/C (dose: 2.59 mg/kg/injection, schedule: Q04DX002 (ip), vehicle: saline): 160 % of control
T/C (dose: 3.0 mg/kg/injection, schedule: Q01DX005 (ip), vehicle: saline with Tween-80): 216 % of control
T/C (dose: 4.0 mg/kg/injection, schedule: Q01DX005 (ip), vehicle: saline): 200 % of control
T/C (dose: 4.9 mg/kg/injection, schedule: Q01DX005 (ip), vehicle: saline with Tween-80): 211 % of control and 259 % of control
T/C (dose: 8.0 mg/kg/injection, schedule: Q04DX003 (iv), vehicle: saline with Tween-80): 160 % of control
T/C (dose: 8.1 mg/kg/injection, schedule: Q01DX005 (ip), vehicle: saline with Tween-80): 75 % of control
T/C (dose: 12.0 mg/kg/injection, schedule: Q04DX002 (ip), vehicle: saline): 277 % of control
T/C (dose: 22.5 mg/kg/injection, schedule: Q01DX001 (ip), vehicle: saline with Tween-80): 62 % of control
T/C (dose: 37.5 mg/kg/injection, schedule: Q01DX001 (ip), vehicle: saline with Tween-80): 100 % of control and 58 % of control

CN1C(=O)N(C)C2(C(=O)N(C)C(=O)N2C)N(C)C1=O
T/C [1]: 99 % of control and 102 % of control
T/C [2]: 96 % of control
T/C [3]: 98 % of control and 105 % of control

S=C(Nc1nccs1)Nc1nccs1
T/C (dose: 3.13 mg/kg/injection, schedule: Q01DX009 (ip), vehicle: Klucel (hydroxypropylcellulose) (HPC)): 98 % of control
T/C (dose: 6.25 mg/kg/injection, schedule: Q01DX009 (ip), vehicle: Klucel (hydroxypropylcellulose) (HPC)): 98 % of control
T/C (dose: 12.5 mg/kg/injection, schedule: Q01DX009 (ip), vehicle: Klucel (hydroxypropylcellulose) (HPC)): 95 % of control
T/C (dose: 25.0 mg/kg/injection, schedule: Q01DX009 (ip), vehicle: Klucel (hydroxypropylcellulose) (HPC)): 92 % of control

O=c1c2ccccc2ncn1S(=O)(=O)c1ccc(N(CCCl)CCCl)cc1
T/C (dose: 100.0 mg/kg/injection, schedule: Q04DX002 (ip), vehicle: saline with Tween-80): 110 % of control
T/C (dose: 200.0 mg/kg/injection, schedule: Q04DX002 (ip), vehicle: saline with Tween-80): 118 % of control

CC(=O)OCC1OC2OC(C)(C)OC2C1O (centres undefined)
T/C [4]: 96 % of control
T/C (dose: 100.0 mg/kg/injection, schedule: Q01DX005 (ip), vehicle: saline): 100 % of control
T/C (dose: 200.0 mg/kg/injection, schedule: Q01DX005 (ip), vehicle: saline): 105 % of control

Cc1ccc(NCCN(C)C)c2c(=O)c3cccc(O)c3sc12
T/C [5]: 100 % of control
T/C [6]: 95 % of control
T/C [7]: 97 % of control

CC(C)CC(NC(=O)CCl)C(=O)O (centres undefined)
T/C [8]: 108 % of control
T/C [5]: 108 % of control and 110 % of control
T/C [6]: 106 % of control and 113 % of control
T/C [7]: 96 % of control
T/C [9]: 108 % of control

CSc1cccc(NC(=O)Nc2ccccc2C(N)=O)c1
T/C [10]: 94 % of control
T/C [11]: 103 % of control
T/C [12]: 94 % of control

NC(=S)n1nc(-c2ccccc2)c(N=Nc2ccccc2Cl)c1-c1ccccc1
T/C (dose: 50.0 mg/kg/injection, schedule: Q01DX005 (ip), vehicle: saline with Tween-80): 117 % of control
T/C (dose: 100.0 mg/kg/injection, schedule: Q01DX005 (ip), vehicle: saline with Tween-80): 111 % of control
T/C (dose: 200.0 mg/kg/injection, schedule: Q01DX005 (ip), vehicle: saline with Tween-80): 108 % of control

CC1(C)OC2COC3(C(=O)O)OC(C)(C)OC3C2O1 (centres undefined)
T/C [13]: 100 % of control
T/C [14]: 100 % of control
T/C [15]: 98 % of control

CC1(C)CC[C@]2(C(=O)O)CC[C@]3(C)C(=CC[C@@H]4[C@@]5(C)CC[C@H](O)C(C)(C)[C@@H]5CC[C@]43C)[C@@H]2C1
T/C (dose: 12.5 mg/kg/injection, schedule: Q01DX009 (ip), vehicle: saline with Tween-80): 108 % of control
T/C [8]: 99 % of control

C=CC(C)(O)CS(=O)c1ccccc1 (centres undefined)
T/C (dose: 100.0 mg/kg/injection, schedule: Q04DX003 (ip), vehicle: saline): 100 % of control
T/C (dose: 200.0 mg/kg/injection, schedule: Q04DX003 (ip), vehicle: saline): 101 % of control
T/C (dose: 400.0 mg/kg/injection, schedule: Q04DX003 (ip), vehicle: saline): 108 % of control

CCN(CC)Cc1c(C)[nH]c2cc(N(C)C)ccc2c1=O
T/C [10]: 96 % of control
T/C [11]: 97 % of control

COc1ccc(C(=O)C(=O)c2ccc(OC)c(OC)c2)cc1OC
T/C [6]: 96 % of control
T/C [7]: 96 % of control
T/C [9]: 92 % of control

O=C(NC(=O)c1c(F)cccc1F)Nc1cc(Cl)c(F)c(Cl)c1F
T/C (dose: 15.0 mg/kg/injection, schedule: Q01DX005 (ip), vehicle: Klucel (hydroxypropylcellulose) (HPC)): 98 % of control
T/C (dose: 30.0 mg/kg/injection, schedule: Q01DX005 (ip), vehicle: Klucel (hydroxypropylcellulose) (HPC)): 90 % of control and 93 % of control
T/C [1]: 87 % of control and 94 % of control
T/C [2]: 93 % of control
T/C [3]: 88 % of control

CCCCCCCCC(=O)C(=O)c1ccc(O)c(C)c1O
T/C [10]: 112 % of control
T/C [11]: 109 % of control
T/C [12]: 110 % of control

O=[N+]([O-])c1ccc(-n2nnc3ccccc32)nc1
T/C (dose: 50.0 mg/kg/injection, schedule: Q01DX009 (ip), vehicle: saline): 108 % of control
T/C (dose: 100.0 mg/kg/injection, schedule: Q01DX009 (ip), vehicle: saline): 99 % of control
T/C (dose: 200.0 mg/kg/injection, schedule: Q01DX009 (ip), vehicle: saline): 99 % of control

CC(=O)SCCCn1c(=O)n(CCCSC(C)=O)c(=O)n(CCCSC(C)=O)c1=O
T/C (dose: 50.0 mg/kg/injection, schedule: Q01DX005 (ip), vehicle: saline + Tween-80 + alcohol): 114 % of control
T/C (dose: 100.0 mg/kg/injection, schedule: Q01DX005 (ip), vehicle: saline + Tween-80 + alcohol): 110 % of control
T/C (dose: 200.0 mg/kg/injection, schedule: Q01DX005 (ip), vehicle: saline + Tween-80 + alcohol): 116 % of control

Cc1ccc(S(=O)(=O)N/N=C\c2cccnc2)cc1
T/C (dose: 12.5 mg/kg/injection, schedule: Q01DX009 (ip), vehicle: other): 105 % of control
T/C (dose: 25.0 mg/kg/injection, schedule: Q01DX009 (ip), vehicle: other): 110 % of control
T/C (dose: 50.0 mg/kg/injection, schedule: Q01DX009 (ip), vehicle: other): 105 % of control
T/C (dose: 100.0 mg/kg/injection, schedule: Q01DX009 (ip), vehicle: other): 109 % of control and 95 % of control
T/C (dose: 200.0 mg/kg/injection, schedule: Q01DX009 (ip), vehicle: other): 99 % of control and 100 % of control
T/C (dose: 400.0 mg/kg/injection, schedule: Q01DX009 (ip), vehicle: other): 101 % of control

O=[C-]c1ccccc1[C-]=O.[I][Ni+2][I]
T/C (dose: 6.25 mg/kg/injection, schedule: Q01DX005 (ip), vehicle: saline): 94 % of control
T/C (dose: 12.5 mg/kg/injection, schedule: Q01DX005 (ip), vehicle: saline): 94 % of control
T/C (dose: 25.0 mg/kg/injection, schedule: Q01DX005 (ip), vehicle: saline): 110 % of control

CCOC(=N)N1[C@H](C)[C@@H]1C
T/C (dose: 12.5 mg/kg/injection, schedule: Q01DX005 (ip), vehicle: Klucel (hydroxypropylcellulose) (HPC)): 109 % of control
T/C (dose: 25.0 mg/kg/injection, schedule: Q01DX005 (ip), vehicle: Klucel (hydroxypropylcellulose) (HPC)): 124 % of control
T/C [4]: 86 % of control

O=C(O)CC(CC(=O)O)c1ccc2c(c1)OCO2
T/C [13]: 99 % of control
T/C [14]: 109 % of control
T/C [15]: 99 % of control

COC(=O)[C@@H]1CCC(/C(C#N)=C2/CC[C@@H](C(=O)OC)N2)=N1
T/C (dose: 60.0 mg/kg/injection, schedule: Q01DX005 (ip), vehicle: saline with Tween-80): 96 % of control
T/C (dose: 120.0 mg/kg/injection, schedule: Q01DX005 (ip), vehicle: saline with Tween-80): 95 % of control
T/C (dose: 240.0 mg/kg/injection, schedule: Q01DX005 (ip), vehicle: saline with Tween-80): 94 % of control
